{"source": "patent US6608111B1", "about": "“Method for treating or preventing prostatic conditions” (Southern Illinois University Office of Research, …, priority 1998, dated 2003)", "key": {"[1]": {"test_system": "male and female Sprague-Dawley rats", "test": "Experiment 1: chronic treatment of male and female rats, 4 weeks", "type": "in vivo, rat", "details": "mean ± SEM; for Food intake: n = 5", "experimental": "Twenty-five male and 25 female Sprague-Dawley rats, 9-10 weeks of age, were randomly assigned to groups of five animals, respectively, as a control group (no treatment) (C), for treatment with vehicle only (V), estradiol (E), (±)-Z-BDDA, or (+)-Z-BDDA. Each animal in group V received a daily 0.1 cc injection of a 10% ethanol-90% olive oil solution; the other treatments received their respective compound as a daily 0.1 cc injection, e.g., 2.5 μg of compound/g of body weight, in a 10% ethanol-90% olive oil solution. A temperature of 21° C. and an artificial 12-h light-dark cycle was maintained in the animal room. All animals were maintained on standard chow in powdered form for four weeks, then sacrificed after an overnight fast under i.p. pentobarbital anesthesia (50 mg/kg). Animal weight and food intake were measured weekly during the study, and the subsequent food-efficiency ratio [FER(g of weight change/g of food intake)] was determined. During sacrifice, blood was collected (via cardiac puncture) for cholesterol measurements. Immediately following sacrifice the fat pads and reproductive organs were removed and weighed.\n(§1) Experiments 1 and 2 employed a randomized design. All data were analyzed by one-way analysis of variance (ANOVA,)and post-hoc comparisons were made with Tukey pairwise comparisons test. Significance was confirmed at p≦0.05 (SYSTAT 7.0, SPSS INC., 1997), and all values are reported as means±standard error of the mean."}, "[2]": {"test_system": "male and female Wistar rats", "test": "Experiment 2: chronic treatment of male and female rats, 5-6 weeks", "type": "in vivo, rat", "details": "for Food intake: n = 5", "experimental": "Twenty-five male and 25 female Wistar rats, 7-8 weeks of age, were randomly assigned to groups of five animals, respectively, for treatment with vehicle only (V), estradiol (E), (±)-Z-BDDA, (+)-Z-BDDA, or (−)-Z-BDDA. Each animal in group V received a daily 0.1 cc injection of a 10% ethanol-90% olive oil solution; the other treatments received their respective compound as a daily 0.1 cc injection, e.g., 2.5 μg of compound/g of body weight, in a 10% ethanol-90% olive oil solution. A temperature of 21° C. and an artificial 12-h light-dark cycle were maintained in the animal room. All animals were maintained on standard chow in powdered form, the males for five weeks and the females for six weeks, then sacrificed after an overnight fast under i.p. pentobarbital anesthesia (50 mg/kg). Animal weight and food intake were measured weekly during the study and subsequent FER values were determined. During sacrifice, blood was collected (via cardiac puncture) for glucose, luteinizing hormone, prolactin and testosterone measurements. The amounts of luteinizing hormone, prolactin and testosterone were measured to help elucidate the target tissue of the respective compounds in male and female rats. Immediately following sacrifice the fat pads and reproductive organs were removed and weighed.\nas §1"}, "[3]": {"test_system": "uterine cytosolic estrogen receptors (ER)", "details": "competitive binding-inhibition, relative to E2; cited from earlier work"}, "[4]": {"test_system": "MCF-7 human mammary cancer cell line", "details": "human MCF-7 cells in culture; cited from earlier work"}, "female mice": {"test_system": "female mice", "details": "E2 5 g/animal/day, (±)-Z-BDDA 5, 50, and 500 g/animal/day, versus control group; cited from earlier work"}, "[5]": {"details": "even at 1000-times the estrogenic dosage; cited from earlier work"}, "[6]": {"details": "in vivo assays, compared with estradiol; cited from earlier work"}, "[7]": {"test_system": "rats, cats, chicks, and guinea pigs", "details": "animals including rats; cited from earlier work"}, "women": {"test_system": "women", "details": "clinical; cited from earlier work"}, "[8]": {"details": "female rats, 2.5 ug/g of body weight daily"}, "[9]": {"details": "male rats, 2.5 ug/g of body weight daily"}, "[10]": {"details": "female rats, 2.5 ug/g of body weight daily, six weeks, mean ± SEM"}, "[11]": {"details": "male rats, 2.5 ug/g of body weight daily, five weeks, mean ± SEM"}}, "note": "“Also recorded” adds a separate entry of the source."}
{"compound": "(±)-Z-bisdehydrodoisynolic acid [(±)-Z-BDDA]", "values": [{"measurement": "Uterus/testis weight (g)", "setting": "[1]; female rats (uterus), 2.5 ug/g of body weight daily", "value": "2.04 ± 0.45^1 g"}, {"measurement": "Food intake", "setting": "[1]; female rats, 2.5 ug/g of body weight daily injection", "value": "318.2 ± 21.8", "unit": "g"}, {"measurement": "FER (food efficiency ratio)", "setting": "[1]; female rats, 2.5 ug/g of body weight daily, g of weight change/g of food intake", "value": "−0.023 ± 0.027^1"}, {"measurement": "Cholesterol (mg/dl)", "setting": "[1]; [8]", "value": "30.1 ± 2.8^1 mg/dl"}, {"measurement": "Visceral fat", "setting": "[1]; [8]", "value": "1.3 ± 0.1", "unit": "g"}, {"measurement": "Uterus/testis weight (g)", "setting": "[1]; male rats (testis), 2.5 ug/g of body weight daily", "value": "0.72 ± 0.06^1,2 g"}, {"measurement": "Cholesterol (mg/dl)", "setting": "[1]; [9]", "value": "36.2 ± 2.6^1,2 mg/dl"}, {"measurement": "FER (food efficiency ratio)", "setting": "[1]; [9]", "value": "−0.099 ± 0.009^1,2"}, {"measurement": "Prostate weight (g)", "setting": "[1]; [9]", "value": "0.08 ± 0.02^1,2 g"}, {"measurement": "Visceral fat (g)", "setting": "[1]; [9]", "value": "4.5 ± 0.4^2 g"}, {"measurement": "Food intake", "setting": "[1]; [9]", "value": "344.6 ± 15.5", "unit": "g"}, {"measurement": "Uterus/testis weight (g)", "setting": "[2]; female rats (uterus), 2.5 ug/g of body weight daily, six weeks, mean ± SEM", "value": "4.25 ± 1.04^1 g"}, {"measurement": "Blood glucose", "setting": "[2]; [10]", "value": "80.40 ± 5.66", "unit": "mg/dL"}, {"measurement": "FER (food efficiency ratio)", "setting": "[2]; [10]", "value": "0.017 ± 0.003^1,2"}, {"measurement": "Food intake", "setting": "[2]; [10]", "value": "704.0 ± 51.7", "unit": "g"}, {"measurement": "weight gain (percent weight change)", "setting": "[2]; female rats, both experiments (FIGS. 2 and 3), 2.5 μg/g daily", "value": "repress weight gain slightly more than did (+)-Z-BDDA and E2"}, {"measurement": "Uterus/testis weight (g)", "setting": "[2]; male rats (testis), 2.5 ug/g of body weight daily, five weeks, mean ± SEM", "value": "0.78 ± 0.02^1 g"}, {"measurement": "testosterone", "setting": "[2]; male rats, 2.5 μg/g daily, compared to the vehicle", "value": "less pronounced"}, {"measurement": "Blood glucose", "setting": "[2]; [11]", "value": "98.60 ± 14.00", "unit": "mg/dL"}, {"measurement": "FER (food efficiency ratio)", "setting": "[2]; [11]", "value": "−0.04 ± 0.01^1,2"}, {"measurement": "Prostate weight", "setting": "[2]; [11]", "value": "0.16 ± 0.02", "unit": "g"}, {"measurement": "Food intake", "setting": "[2]; [11]", "value": "530.0 ± 33.0", "unit": "g"}, {"measurement": "binding affinity as fraction of that of E2", "setting": "[3]", "value": "0.01-0.03"}, {"measurement": "MCF-7 cell proliferation (estrogenicity)", "setting": "[4]", "value": "high estrogenic potency"}, {"measurement": "rate of weight gain", "setting": "female mice", "value": "diminished"}, {"measurement": "toxicity and carcinogenicity", "setting": "[5]", "value": "neither toxicity nor carcinogenicity"}, {"measurement": "estrogenicity: vaginal cornification and uterotropism", "setting": "[6]", "value": "rivaling or even surpassing estradiol"}]}
{"compound": "CC[C@@H](c1ccc2cc(OC)ccc2c1)C(C)(C)C(=O)O", "note": "[compound 2, (−)-3-[2-(6-methoxynaphthyl)]-2,2-dimethyl-pentanoic acid]", "values": [{"measurement": "MCF-7 cell proliferation (estrogenicity)", "setting": "[4]", "value": "very little effect"}, {"measurement": "estrogenic activity (estrogenicity) in animals", "setting": "[7]", "value": "strongest estrogenic activity; also recorded: highly estrogenic in animals, equivalent to 17β-estradiol"}, {"measurement": "estrogenic response in women / humans", "setting": "women", "value": "high dosages were required to elicit strong estrogenic responses"}]}
